Source: the supplement of paper PMC10307832

Tests used:
Assay in all cases: relative viability (nuclei count vs DMSO), 5 days (fraction); higher = more cells survive
Olaparib + Pictilisib = compound: O=C(c1cc(Cc2n[nH]c(=O)c3ccccc23)ccc1F)N1CCN(C(=O)C2CC2)CC1 [Olaparib] + CS(=O)(=O)N1CCN(Cc2cc3nc(-c4cccc5[nH]ncc45)nc(N4CCOCC4)c3s2)CC1 [Pictilisib] (partner 1 µM)
How it was run: (§1)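 Lung cancer cell lines were pin-tool dosed in 1536-well plates on the day after seeding, with either a lone drug or a fixed anchor-drug dose plus five library-drug doses (not always all listed) in √10 steps. Nuclei were counted on 4× images after 5 days. Relative viability is the ratio of treated-well to vehicle-well nuclei counts, with each value a median of duplicate plates.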

Crizotinib + Foretinib = compound: C[C@@H](Oc1cc(-c2cnn(C3CCNCC3)c2)cnc1N)c1c(Cl)ccc(F)c1Cl [Crizotinib] + COc1cc2c(Oc3ccc(NC(=O)C4(C(=O)Nc5ccc(F)cc5)CC4)cc3F)ccnc2cc1OCCCN1CCOCC1 [Foretinib] (partner 0.25 µM)
How it was run: as §1

Crizotinib + Alpelisib = compound: C[C@@H](Oc1cc(-c2cnn(C3CCNCC3)c2)cnc1N)c1c(Cl)ccc(F)c1Cl [Crizotinib] + Cc1nc(NC(=O)N2CCC[C@H]2C(N)=O)sc1-c1ccnc(C(C)(C)C(F)(F)F)c1 [Alpelisib] (partner 2 µM)
How it was run: as §1

Carfilzomib + Alpelisib = compound: CC(C)C[C@H](NC(=O)[C@H](CCc1ccccc1)NC(=O)CN1CCOCC1)C(=O)N[C@@H](Cc1ccccc1)C(=O)N[C@@H](CC(C)C)C(=O)[C@@]1(C)CO1 [Carfilzomib] + Cc1nc(NC(=O)N2CCC[C@H]2C(N)=O)sc1-c1ccnc(C(C)(C)C(F)(F)F)c1 [Alpelisib] (partner 2 µM)
How it was run: as §1

| Cell Line | relative viability (Olaparib + Pictilisib; first compound 0.08 µM) | relative viability (Olaparib + Pictilisib; first compound 0.253 µM) | relative viability (Olaparib + Pictilisib; first compound 2.53 µM) | relative viability (Olaparib + Pictilisib; first compound 8 µM) | relative viability (Crizotinib + Foretinib; first compound 0.01 µM) | relative viability (Crizotinib + Foretinib; first compound 0.03162 µM) | relative viability (Crizotinib + Foretinib; first compound 0.1 µM) | relative viability (Crizotinib + Foretinib; first compound 0.3162 µM) | relative viability (Crizotinib + Foretinib; first compound 1 µM) | relative viability (Crizotinib + Alpelisib; first compound 0.1 µM) | relative viability (Crizotinib + Alpelisib; first compound 0.3162 µM) | relative viability (Crizotinib + Alpelisib; first compound 1 µM) | relative viability (Carfilzomib + Alpelisib; first compound 0.001 µM) | relative viability (Carfilzomib + Alpelisib; first compound 0.003162 µM) | relative viability (Carfilzomib + Alpelisib; first compound 0.01 µM) | relative viability (Carfilzomib + Alpelisib; first compound 0.03162 µM) | relative viability (Carfilzomib + Alpelisib; first compound 0.1 µM) | relative viability (Crizotinib + Alpelisib; first compound 0.01 µM) | relative viability (Crizotinib + Alpelisib; first compound 0.03162 µM) |
| --- | --- | --- | --- | --- | --- | --- | --- | --- | --- | --- | --- | --- | --- | --- | --- | --- | --- | --- | --- |
| 201T | 0.669 | 0.665 | 0.631 | 0.704 | 0.982 | 1.12 | 1.09 | 1.13 | 1.14 | 1.03 | 1.04 | 1.06 | 0.986 | 1.05 | 0.983 | 1.07 | 0.893 | – | – |
| A549 | 0.636 | 0.398 | 0.456 | 0.376 | 0.919 | 1.05 | 0.908 | 0.853 | 1.02 | 0.738 | 0.677 | 0.793 | 0.652 | 0.754 | 0.755 | 0.0509 | 0.04 | 0.657 | 0.804 |
| A-427 | 0.697 | 0.571 | 0.547 | 0.584 | 0.943 | 1.04 | 1.04 | – | 1.04 | 1.11 | – | 1.06 | 1.07 | 1.07 | 1.06 | 0.699 | 0.1 | 1.04 | 1.05 |
| ABC-1 | 0.916 | 0.777 | 0.65 | 0.625 | – | 1.02 | 1.05 | 1.31 | 1.09 | 1.22 | 1.02 | 0.976 | 1.16 | 1.09 | 0.636 | 0.246 | 0.267 | 0.964 | 1.15 |
| BEN | 0.52 | 0.551 | 0.593 | 0.674 | 0.866 | 0.732 | 0.644 | 0.332 | 0.633 | 0.864 | 1.26 | 1.12 | 1.04 | 1.22 | 1.12 | 0.83 | 0.499 | 0.925 | 0.992 |
| CAL-12T | 0.772 | 0.413 | 0.452 | 0.439 | 1.11 | 1.17 | – | – | 1.24 | 1.28 | 1.13 | 1.36 | – | 1.38 | 1.3 | 0.619 | 0.105 | 1.19 | 1.35 |
| COR-L23 | 0.918 | 0.674 | 0.724 | 0.385 | 0.862 | 1 | 0.89 | 1.06 | 1.07 | 0.659 | 0.758 | 0.665 | 0.735 | 0.879 | 0.709 | 0.0481 | 0.052 | 0.81 | 0.77 |
| COR-L 105 | 0.389 | 0.392 | 0.415 | 0.387 | 1.07 | 1.02 | 1.12 | 0.797 | 1.15 | 0.972 | 0.88 | 0.828 | 1.04 | 1.16 | 0.85 | 0.566 | 0.246 | – | 0.872 |
| Calu-6 | 1.12 | 0.825 | 0.858 | 0.75 | 0.855 | 0.938 | 0.86 | 0.947 | 0.927 | 0.988 | 0.925 | 1.06 | 0.93 | 1.02 | 0.838 | 0.174 | 0.102 | 0.944 | – |
| ChaGo-K-1 | 1.27 | 0.674 | 0.75 | 0.661 | 0.838 | – | 0.939 | – | 0.939 | – | – | – | – | – | – | – | – | – | – |
| EBC-1 | 0.392 | 0.345 | 0.368 | 0.304 | 0.0852 | 0.1 | 0.107 | 0.112 | 0.104 | 0.543 | 0.202 | 0.269 | 0.7 | 0.792 | 0.259 | 0.112 | 0.13 | 0.746 | 0.823 |
| EKVX | 0.493 | 0.444 | 0.41 | 0.477 | 0.772 | 0.752 | 0.717 | 0.444 | 0.991 | 0.792 | 0.905 | 0.864 | 0.845 | 1.06 | 0.953 | 0.837 | 0.363 | 0.849 | 0.967 |
| EMC-BAC-2 | 0.662 | 0.5 | 0.524 | 0.496 | 0.984 | 0.952 | 1.02 | 1.04 | 1.07 | 0.715 | – | 0.781 | 0.699 | 0.733 | 0.757 | 0.758 | 0.326 | 0.76 | 0.818 |
| EPLC-272H | 0.311 | 0.284 | 0.278 | 0.283 | 0.669 | 0.627 | 0.669 | 0.636 | 0.679 | 0.942 | 0.864 | 1.02 | 0.884 | 1.03 | 0.83 | 0.141 | 0.106 | 0.862 | 0.854 |
| H3255 | 0.478 | 0.406 | 0.445 | 0.386 | 0.849 | 0.866 | 1.11 | 0.581 | 0.877 | 0.705 | 0.62 | 0.639 | 0.749 | 0.886 | 0.723 | 0.494 | 0.154 | 0.622 | 0.73 |
| HARA | 0.407 | 0.454 | 0.567 | 0.37 | 0.924 | 0.705 | 0.858 | – | 0.877 | 0.863 | 0.881 | 0.767 | 0.79 | 0.857 | 1.07 | 0.0576 | 0.0587 | 0.859 | 0.836 |
| HCC-15 | 0.866 | 0.647 | 0.678 | 0.627 | 1.07 | 1 | 1.03 | – | 0.987 | 0.906 | 0.848 | 0.956 | 0.855 | 0.914 | 0.86 | 0.506 | 0.0942 | 0.846 | 0.938 |
| HCC-44 | 0.697 | 0.552 | 0.7 | 0.544 | – | – | – | – | – | 0.853 | 0.744 | 0.815 | 0.786 | 0.785 | 0.861 | 0.705 | 0.134 | 0.808 | 0.801 |
